According to patent US5726208A, “Heterocyclic tertiary amines” (Adir et Compagnie, priority 1995, dated 1998):

System: D2 receptor
Experiment: Binding to cloned D2 receptors ([125I]-iodosulpride displacement)
Conditions: reference aminotetralines
Description: Pharmacological study STUDIES OF THE BINDING OF THE COMPOUNDS OF THE INVENTION TO D2 AND D3 RECEPTORS
The results are expressed in the form of pKi (pKi =-logKi).
The Ki value is derived from the formula Ki =IC50 /(1+L/KD), where L is the concentration of [^125 I]-iodosulpride used in the experiment and Kd its dissociation constant.
The IC50, which represents the concentration that gives a 50% inhibition of the binding of the radioligand, is calculated by non-linear regression (Simplex method).

CCCN[C@@H]1CCc2c(OC)cccc2[C@@H]1C [(+) AJ 76]
selectivity (D3 versus D2): 2

CCCN(CCC)[C@@H]1CCc2c(OC)cccc2[C@@H]1C [(+) UH 232]
selectivity (D3 versus D2): 5
